{"source": "patent US8003649B2", "about": "(AstraZeneca AB, priority 2007, dated 2011)"}
{"biological_target": "T1, Androgen Receptor (AR) (Homo sapiens, UniProt P10275, T878A)", "T1 construct": "cell based immuno-fluorescence assay using the LNCaP prostate epithelial cell line; endogenous in cells; host or cells: LNCaP clone FGC (ATCC CRL-1740)", "T1 sequence (P10275 1-920 T878A)": "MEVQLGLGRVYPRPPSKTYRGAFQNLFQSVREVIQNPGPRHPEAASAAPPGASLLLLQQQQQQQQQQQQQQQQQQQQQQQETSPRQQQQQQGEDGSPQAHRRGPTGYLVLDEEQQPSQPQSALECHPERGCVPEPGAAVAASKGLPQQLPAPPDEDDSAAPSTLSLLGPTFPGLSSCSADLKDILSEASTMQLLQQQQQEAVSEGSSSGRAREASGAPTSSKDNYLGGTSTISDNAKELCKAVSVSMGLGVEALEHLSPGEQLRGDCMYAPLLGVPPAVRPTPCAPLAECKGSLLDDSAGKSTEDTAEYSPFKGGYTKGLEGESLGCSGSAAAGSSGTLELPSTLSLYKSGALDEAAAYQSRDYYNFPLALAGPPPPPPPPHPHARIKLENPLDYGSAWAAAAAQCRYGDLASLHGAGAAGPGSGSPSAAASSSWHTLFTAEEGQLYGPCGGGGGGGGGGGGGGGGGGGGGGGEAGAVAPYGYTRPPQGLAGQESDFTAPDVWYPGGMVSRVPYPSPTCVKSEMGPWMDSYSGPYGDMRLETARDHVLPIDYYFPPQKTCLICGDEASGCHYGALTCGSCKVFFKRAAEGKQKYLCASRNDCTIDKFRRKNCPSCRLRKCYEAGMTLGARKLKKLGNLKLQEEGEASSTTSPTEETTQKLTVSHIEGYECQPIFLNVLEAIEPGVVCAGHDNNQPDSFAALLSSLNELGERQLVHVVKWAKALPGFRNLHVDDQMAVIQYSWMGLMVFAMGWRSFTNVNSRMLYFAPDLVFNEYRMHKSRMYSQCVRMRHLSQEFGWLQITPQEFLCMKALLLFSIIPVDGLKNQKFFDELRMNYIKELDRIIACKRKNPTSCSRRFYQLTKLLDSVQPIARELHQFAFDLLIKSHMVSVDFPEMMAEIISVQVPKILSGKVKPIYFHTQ", "experiment": "LNCaP Androgen Receptor Down-regulation Cell Assay (immunofluorescence end point)", "format": "cell-based", "conditions": "LNCaP prostate carcinoma cells, compound incubation 20-22 hours, 50% reduction of the AR signal", "in_short": "(§1)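 AR loss reported as IC50 from curve fits of fluorescence dose-response data, with AR immunostained and read by laser-scanning cytometry. Compound exposure was 20-22 h at 37° C in LNCaP cells grown in 5% charcoal-stripped FBS and plated overnight beforehand.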", "units": {"IC50": "µM"}}
{"smiles": "CS(=O)(=O)Oc1cccc(CN2CCN(c3ccc4nnc(C(F)(F)F)n4n3)CC2)c1", "note": "[Example 151, [3-[[4-[3-(trifluoromethyl)-[1,2,4]triazolo[4,3-b]pyridazin-6-yl]piperazin-1-yl]methyl]phenyl]methanesulfonate]", "IC50": 3.1}
{"biological_target": "T1, Androgen Receptor (AR)", "experiment": "LNCaP Androgen Receptor Down-regulation Cell Assay (immunofluorescence end point)", "format": "cell-based", "conditions": "LNCaP prostate carcinoma cells, compound incubation 20-22 hours, 50% reduction of the AR signal; read-out: Androgen Receptor Down-regulation Assay (a) IC50/μM", "in_short": "as §1", "units": {"DC50": "µM"}}
{"smiles": "CS(=O)(=O)Nc1cccc(CN2CCN(c3ccc4nnc(C(F)(F)F)n4n3)CC2)c1", "note": "[Example 150, N-[3-[[4-[3-(trifluoromethyl)-[1,2,4]triazolo[4,3-b]pyridazin-6-yl]piperazin-1-yl]methyl]phenyl]methanesulfonamide]", "DC50": 7.6}
{"smiles": "CS(=O)(=O)Oc1ccc(CN2CCN(c3ccc4nnc(C(F)(F)F)n4n3)CC2)cc1", "note": "[Example 152, [4-[[4-[3-(trifluoromethyl)-[1,2,4]triazolo[4,3-b]pyridazin-6-yl]piperazin-1-yl]methyl]phenyl]methanesulfonate]", "DC50": 6.7}
{"smiles": "NC(=O)COc1ccc(CN2CCN(c3ccc4nnc(C(F)(F)F)n4n3)CC2)cc1", "note": "[Example 153, 2-[4-[[4-[3-(trifluoromethyl)-[1,2,4]triazolo[4,3-b]pyridazin-6-yl]piperazin-1-yl]methyl]phenoxy]acetamide]", "DC50": 7.9}
{"smiles": "N#CCOc1ccc(CN2CCN(c3ccc4nnc(C(F)(F)F)n4n3)CC2)cc1", "note": "[Example 154, 2-[4-[[4-[3-(trifluoromethyl)-[1,2,4]triazolo[4,3-b]pyridazin-6-yl]piperazin-1-yl]methyl]phenoxy]acetonitrile]", "DC50": 1.6}
{"smiles": "CCCCOc1cccc(CN2CCN(c3ccc4nnc(C(F)(F)F)n4n3)CC2)c1", "note": "[Example 157, 6-[4-[(3-butoxyphenyl)methyl]piperazin-1-yl]-3-(trifluoromethyl)-[1,2,4]triazolo[4,3-b]pyridazine]", "DC50": 2.4}
{"smiles": "CCCc1ccc(CN2CCN(c3ccc4nnc(C(F)(F)F)n4n3)CC2)cc1", "note": "[Example 158, 6-[4-[(4-propylphenyl)methyl]piperazin-1-yl]-3-(trifluoromethyl)-[1,2,4]triazolo[4,3-b]pyridazine]", "DC50": 3}
{"smiles": "CCc1ccc(CN2CCN(c3ccc4nnc(C(F)(F)F)n4n3)CC2)cc1", "note": "[Example 159, 6-[4-[(4-ethylphenyl)methyl]piperazin-1-yl]-3-(trifluoromethyl)-[1,2,4]triazolo[4,3-b]pyridazine]", "DC50": 1.4}
{"smiles": "FC(F)(F)c1nnc2ccc(N3CCN(Cc4ccc(N5CCOCC5)cc4)CC3)nn12", "note": "[Example 160, 6-[4-[(4-morpholin-4-ylphenyl)methyl]piperazin-1-yl]-3-(trifluoromethyl)-[1,2,4]triazolo[4,3-b]pyridazine]", "DC50": 6.6}
{"smiles": "FC(F)Oc1ccc(CN2CCN(c3ccc4nnc(C(F)(F)F)n4n3)CC2)cc1", "note": "[Example 161, 6-[4-[[4-(difluoromethoxy)phenyl]methyl]piperazin-1-yl]-3-(trifluoromethyl)-[1,2,4]triazolo[4,3-b]pyridazine]", "DC50": 1.4}
{"smiles": "FC(F)Oc1cccc(CN2CCN(c3ccc4nnc(C(F)(F)F)n4n3)CC2)c1", "note": "[Example 162, 6-[4-[[3-(difluoromethoxy)phenyl]methyl]piperazin-1-yl]-3-(trifluoromethyl)-[1,2,4]triazolo[4,3-b]pyridazine]", "DC50": 1}
{"smiles": "CCOC(=O)/C=C/c1ccc(CN2CCN(c3ccc4nnc(C(F)(F)F)n4n3)CC2)cc1", "note": "[Example 163, ethyl (E)-3-[4-[[4-[3-(trifluoromethyl)-[1,2,4]triazolo[4,3-b]pyridazin-6-yl]piperazin-1-yl]methyl]phenyl]prop-2-enoate]", "DC50": 3.6}
{"smiles": "CS(=O)(=O)c1ccccc1CN1CCCN(c2ccc3nnc(C(F)(F)F)n3n2)CC1", "note": "[Example 164, 6-[4-[(2-methylsulfonylphenyl)methyl]-1,4-diazepan-1-yl]-3-(trifluoromethyl)-[1,2,4]triazolo[4,3-b]pyridazine]", "DC50": 1.7}
{"smiles": "CS(=O)(=O)c1cccc(CN2CCCN(c3ccc4nnc(C(F)(F)F)n4n3)CC2)c1", "note": "[Example 165, 6-[4-[(3-methylsulfonylphenyl)methyl]-1,4-diazepan-1-yl]-3-(trifluoromethyl)-[1,2,4]triazolo[4,3-b]pyridazine]", "DC50": 1.7}
{"smiles": "COc1ccccc1CN1CCCN(c2ccc3nnc(C(F)(F)F)n3n2)CC1", "note": "[Example 167, 6-[4-[(2-methoxyphenyl)methyl]-1,4-diazepan-1-yl]-3-(trifluoromethyl)-[1,2,4]triazolo[4,3-b]pyridazine]", "DC50": 2.4}
{"smiles": "FC(F)(F)c1ccc(CN2CCCN(c3ccc4nnc(C(F)(F)F)n4n3)CC2)cc1", "note": "[Example 168, 3-(trifluoromethyl)-6-[4-[[4-(trifluoromethyl)phenyl]methyl]-1,4-diazepan-1-yl]-[1,2,4]triazolo[4,3-b]pyridazine]", "DC50": 1.6}
{"smiles": "Fc1ccccc1CN1CCCN(c2ccc3nnc(C(F)(F)F)n3n2)CC1", "note": "[Example 169, 6-[4-[(2-fluorophenyl)methyl]-1,4-diazepan-1-yl]-3-(trifluoromethyl)-[1,2,4]triazolo[4,3-b]pyridazine]", "DC50": 0.92}
{"smiles": "N#Cc1ccc(CN2CCCN(c3ccc4nnc(C(F)(F)F)n4n3)CC2)cc1", "note": "[Example 170, 4-[[4-[3-(trifluoromethyl)-[1,2,4]triazolo[4,3-b]pyridazin-6-yl]-1,4-diazepan-1-yl]methyl]benzonitrile]", "DC50": 0.61}
{"smiles": "N#Cc1cccc(CN2CCCN(c3ccc4nnc(C(F)(F)F)n4n3)CC2)c1", "note": "[Example 171, 3-[[4-[3-(trifluoromethyl)-[1,2,4]triazolo[4,3-b]pyridazin-6-yl]-1,4-diazepan-1-yl]methyl]benzonitrile]", "DC50": 0.62}
{"smiles": "Fc1cccc(CN2CCCN(c3ccc4nnc(C(F)(F)F)n4n3)CC2)c1", "note": "[Example 172, 6-[4-[(3-fluorophenyl)methyl]-1,4-diazepan-1-yl]-3-(trifluoromethyl)-[1,2,4]triazolo[4,3-b]pyridazine]", "DC50": 0.81}
{"smiles": "FC(F)(F)c1nnc2ccc(N3CCCN(Cc4cccc(Cl)c4)CC3)nn12", "note": "[Example 175, 6-[4-[(3-chlorophenyl)methyl]-1,4-diazepan-1-yl]-3-(trifluoromethyl)-[1,2,4]triazolo[4,3-b]pyridazine]", "DC50": 0.68}
{"smiles": "FC(F)(F)c1nnc2ccc(N3CCCN(Cc4ccc(Cl)cc4)CC3)nn12", "note": "[Example 176, 6-[4-[(4-chlorophenyl)methyl]-1,4-diazepan-1-yl]-3-(trifluoromethyl)-[1,2,4]triazolo[4,3-b]pyridazine]", "DC50": 0.85}
{"smiles": "Fc1ccc(CN2CCCN(c3ccc4nnc(C(F)(F)F)n4n3)CC2)cc1", "note": "[Example 177, 6-[4-[(4-fluorophenyl)methyl]-1,4-diazepan-1-yl]-3-(trifluoromethyl)-[1,2,4]triazolo[4,3-b]pyridazine]", "DC50": 0.77}
{"smiles": "Cc1cccc(CN2CCCN(c3ccc4nnc(C(F)(F)F)n4n3)CC2)c1", "note": "[Example 178, 6-[4-[(3-methylphenyl)methyl]-1,4-diazepan-1-yl]-3-(trifluoromethyl)-[1,2,4]triazolo[4,3-b]pyridazine]", "DC50": 0.88}
{"smiles": "FC(F)(F)c1cccc(CN2CCCN(c3ccc4nnc(C(F)(F)F)n4n3)CC2)c1", "note": "[Example 179, 3-(trifluoromethyl)-6-[4-[[3-(trifluoromethyl)phenyl]methyl]-1,4-diazepan-1-yl]-[1,2,4]triazolo[4,3-b]pyridazine]", "DC50": 0.59}
{"smiles": "COc1ccc(CN2CCCN(c3ccc4nnc(C(F)(F)F)n4n3)CC2)cc1", "note": "[Example 181, 6-[4-[(4-methoxyphenyl)methyl]-1,4-diazepan-1-yl]-3-(trifluoromethyl)-[1,2,4]triazolo[4,3-b]pyridazine]", "DC50": 2.1}
{"smiles": "FC(F)(F)c1cccc(CN2CCN(c3ccc4nnc(C(F)(F)F)n4c3)CC2)c1", "note": "[Example 185, 3-(trifluoromethyl)-6-[4-[[3-(trifluoromethyl)phenyl]methyl]piperazin-1-yl]-[1,2,4]triazolo[4,3-a]pyridine]", "DC50": 0.68}
{"smiles": "FC(F)(F)c1ccc(CN2CCN(c3ccc4nnc(C(F)(F)F)n4c3)CC2)cc1", "note": "[Example 186, 3-(trifluoromethyl)-6-[4-[[4-(trifluoromethyl)phenyl]methyl]piperazin-1-yl]-[1,2,4]triazolo[4,3-a]pyridine]", "DC50": 2.8}
{"smiles": "N#Cc1ccc(CN2CCN(c3ccc4nnc(C(F)(F)F)n4c3)CC2)cc1", "note": "[Example 187, 4-[[4-[3-(trifluoromethyl)-[1,2,4]triazolo[4,3-a]pyridin-6-yl]piperazin-1-yl]methyl]benzonitrile]", "DC50": 4.7}
{"smiles": "N#Cc1cccc(CN2CCN(c3ccc4nnc(C(F)(F)F)n4c3)CC2)c1", "note": "[Example 188, 3-[[4-[3-(trifluoromethyl)-[1,2,4]triazolo[4,3-a]pyridin-6-yl]piperazin-1-yl]methyl]benzonitrile]", "DC50": 2.2}
